Results: patent US6635629B2, “3-nitrogen-6,7-dioxygen steroids and uses related thereto” (Inflazyme Pharmaceuticals Ltd., priority 2000, dated 2003)
Where two headings read alike, the source gives them in different places.

How the values were obtained:
Jurkat clone E6.1 cells = test: Antigen-induced (anti-CD3 mAb) calcium flux in Jurkat clone E6.1 cells; format: cell-based; conditions: 20 μM; anti-CD3 mAb 4 μg/mL; Fura 2AM
From the text: Elevation of cytoplasmic calcium concentration is a common and crucial event which follows the activation of many types of cell surface receptors. Increases in intracellular calcium that occur following agonist activation of inositol lipid hydrolysis are the results of calcium release from the endoplasmic reticulum and the influx of calcium through the plasma membrane. Increases in cytosolic calcium concentration are involved in many important cellular responses in the inflammatory process including adhesion, motility, gene expression, proliferation, and degranulation. Changes in intracellular calcium centrations can affect both short and long term cellular responses. An assay method to evaluate a test compound's impact on calcium flux is provided as follows.
The resulting supernatants are discarded and each pellet is washed in 10 mL HBSS. Cell suspensions are accumulated and centrifuged for 5 minutes at 900 RPM to form a cell pellet. The resulting supernatant is discarded and the pellet is resuspended in HBSS at 1×10^7 cells/mL. The cell suspension is transferred to a 20 mm petri dish and incubated at 37° C., 5% CO2 for 20 minutes.
One volume of Fura 2AM is mixed to one volume of detergent Pluronic F127. Cells are labeled with 4 μL of probe solution to each mL of cell suspension. The petri dish is wrapped in aluminum foil to protect from light and placed on a plate shaker for 30 minutes at room temperature.
The following steps are done in the laminar flow hood with the fluorescent lights turned off. The petri dish is removed from the shaker and the labeled cell suspension is transferred to a 15 mL conical tube and washed twice with HBSS as above. The cell pellet is resuspended in 12 mL HBSS and left wrapped in foil for 30 minutes at room temperature. The labeled cell suspension is aliquoted (100 μL/well) into a Dynex 96 well white opaque tissue culture plate. […] Selected compounds were tested for dose related activity. Test samples and activator (anti—CD3 mAb at final concentration of 4 μg/mL, PharMingen) are added manually (50 μL), such that the minimum time to acquire the first data point after stimulation is approximately 30 seconds. The calcium influx response to anti-CD3 mAb is measured as an “end point” assay. The entire plate is read in 100 seconds using a kinetic of 1 second per well.
The plate is read before the addition of anti-CD3 to monitor non-specific effect of samples/drugs. Fluorescence emission is measured at 510 nm with excitation alternating between 340 and 380 every second using an excitation/emission filter pair. Data from these dual wavelengths are represented as a ratio of 2 excitations wavelengths. This ratio is independent of intracellular dye and cell concentrations, enabling real comparison between experiments.

[1] = test system: rat mast cell line (RBL-2H3); test: Antigen-induced release of hexosaminidase from a rat mast cell line (RBL-2H3); format: cell-based; conditions: tested at 0.3, 3, 10 and 30 μM, read-out: Hex IC50
Procedure: The anti-allergic effects of a compound of the present invention was evaluated by measuring its effect on antigen-induced secretion of hexosaminidase from a passively sensitized rat mast cell line. The ability of a test compound to inhibit the release of mast cell granule contents, e.g., histamine and hexosaminidase, is indicative of the anti-allergy and/or anti-asthma activity of the compound. Hexosaminidase is released from the mast cell granule along with histamine and other mediators during antigen challenge. The test is performed as follows.
RBL-2H3 cells are grown in culture and passively sensitized for 1 hour at 37° C. to dinitrophenol (DNP) using anti-human-DNP (IgE). Cells are incubated with test compound for 30 minutes at 37° C. and stimulated with 0.5 μg/ml DNP-HSA (antigen) for 30 minutes. Aliquots of the supernatant are removed and used to measure the amount of hexosaminidase released during challenge with the antigen. […] The effect of each test compound is determined as a percentage of the antigen-induced response (minus background release) obtained in the presence of DMSO alone. These values are used to determine the degrees of inhibition of antigen-induced hexosaminidase release from the cells.

[2] = test system: sensitized Brown Norway rats; test: Ovalbumin-induced accumulation of inflammatory cells in lung lavage fluid of sensitized Brown Norway rats; format: in vivo, rat; conditions: p.o., corn oil vehicle, relative to control animals
Procedure: The ability of a compound to inhibit the allergen-induced accumulation of inflammatory cells such as eosinophils and neutrophils in the lavage fluid obtained from sensitized animals is indicative of that compound's anti-asthma activity. […] The test is conducted as follows.
Male Brown Norway rats are sensitized to ovalbumin by single intraperitoneal injection of 1 mg ovalbumin adsorbed to 100 mg A(OH)3 (alum) in 1 ml sterile saline (saline control rats receive only sterile saline) on day 1, and allowed to sensitize until day 21. […] Rats are challenged with 0.5% ovalbumin in saline generated using a Devillbis nebulizer for 60 min on day 21.
Forty-eight hrs after challenge, animals are sacrificed with an overdose of intraperitoneally-delivered sodium pentobarbitol and the lungs are lavaged with cold 2×7 ml phosphate buffered saline. The recovered lavage fluid is placed on ice. The bronchoalveolar lavage fluid is centrifuged and the supernatant removed. The pellet is resuspended in phosphate buffered saline at 4° C. Cytospins are prepared and stained for differentiation and enumeration of cell types.
Test compound was administered in 300 μl corn oil (Tables 7 and 8) or water (Table 9), which were used as vehicles. Control animals received 300 μl corn oil or water alone, i.e., no drug. […] A negative value in Table 7, 8, or 9 indicates an exacerbation of the effect over the control animal.

[3] = Metabolic stability in human liver S9 fractions; format: in vitro ADME; conditions: 10 μM
From the text: The therapeutic effectiveness of a test compound can be often directly related to its metabolic stability in vivo. The majority of known, marketed drugs are metabolized by a group of enzymes known as P450 enzymes. The S9 fraction of human liver contains all the P450 enzymes and also cytoplasmic enzymes that may be involved in the metabolism of new chemical entities. Metabolism in vitro using human S9 fractions is a standard assay to evaluate relative metabolic stability of new compounds. The test is performed as follows.
Reagents are thawed on ice and combined to make up a Master Mix as follows: Potassium phosphate (100 mM, pH 7), G6P (0.25 mM), G6PDH (2 U/ml), NADPH (1 mM), UDP (0.25 mM), APPS (0.25 mM), and S9 fraction (2 mg/ml). A volume of 498 μl of the Master mix is dispensed into each microcentrifuge tube. A volume of 2 μl of 2.5 mM test compound (final concentration of 10 μM) is dispensed into the center of the lid of the appropriate tube, and the lids gently closed to prevent mixing. Synchronous combination of test compound and master mix is achieved by simultaneous ten times inversion of the tubes, which are then incubated at 37° C. and shaken at 150 rpm for the appropriate incubation times. While incubation is in progress, all 0 time samples are mixed individually by three times inversion followed by the immediate addition of 500 μl ice cold acetonitrile with three times inversion to stop the reaction. Immediately after each 15 minutes and 30 minutes incubation is complete, ice cold acetonitrile is added to each tube and the tubes mixed by three times inversion. All sample tubes are incubated at −80° C. for a minimum of 15 minutes, thawed and remixed by inversion. Aliquots of 650 μl are transferred to Chromatographic Specialties micro-spin filter system tubes (0.2 μm nylon membrane, C618505) and centrifuged at 13,000 rpm for 48 seconds. The sample filtrates are stored at −80° C.
Sample filtrates are analyzed on LCMS, and percent remaining after 15 and 30 minute incubation is calculated relative to the 0 minute incubation.
The metabolic stability of various compounds are summarized in Table 10 as the percent remaining after 15 or 30 minutes incubation with human liver S9 fractions.

[4] = inhibition of DNP-HSA antigen-induced hexosaminidase release
[5] = 37° C., 15 min incubation, relative to 0 minute incubation
[6] = 37° C., 30 min incubation, relative to 0 minute incubation

Row | Structure (SMILES) | Calcium (% inhibition at 20 μM) (Jurkat clone E6.1 cells) [%] | % inhibition of eosinophils ([2]; 5 mg/kg/day for 4 days) [%] | % inhibition of lymphocytes ([2]; 5 mg/kg/day for 4 days) [%] | % inhibition of neutrophils ([2]; 5 mg/kg/day for 4 days) [%] | % remaining after 15 min ([3]; human, s9, 15 min, pH 7) [%] | % remaining after 30 min ([3]; human, s9, 30 min, pH 7) [%] | IC50 [1, 4] [µM] | other results
1 | C=C1CCC2C3C(CC[C@]12C)[C@@]1(C)CCC(N)CC1[C@@H](O)[C@@H]3O (stereo partly drawn) [Compound 53] | −0.8 | 24 | 13 | 57 |  |  |  | IC50 ([1]; Rattus norvegicus, RBL-2H3, inhibition of DNP-HSA antigen-induced hexosaminidase release): 17.6 µM
2 | CC(F)=C1CCC2C3C(CC[C@]12C)[C@@]1(C)CCC(N)CC1[C@@H](O)[C@@H]3O (stereo partly drawn) [Compound 64] |  | 62 | 81 | 70 | 104 ± 4 | 88 ± 5 |  | 
3 | COC(=O)C=C1CCC2C3C(CC[C@]12C)[C@@]1(C)CCC(N)CC1[C@@H](O)[C@@H]3O (stereo partly drawn) [Compound 69] |  |  |  |  | 73 ± 24 | 63 ± 6 |  | 
4 | C=C1CCC2C3C(CC[C@]12C)[C@@]1(C)CCC(N)CC1[C@@H](OC)[C@@H]3OC (stereo partly drawn) [Compound 79] | 9.1 |  |  |  | 67 ± 6 | 61 ± 14 | 18.4 | 
5 | CC(F)=C1CCC2C3C(CC[C@]12C)[C@@]1(C)CCC(N)CC1[C@@H](O)[C@@H]3O (stereo partly drawn) [Compound 95] | 11.2 | 14 | 30 | 45 |  |  | 13.5 | 
6 | CCC1CCC2C3C(CC[C@]12C)[C@@]1(C)CCC(N)CC1[C@@H](O)[C@@H]3O (stereo partly drawn) [Compound 96] |  | −9 | 19 | 40 | 92 ± 19 | 94 ± 21 |  | 
7 | C=C1CCC2C3C(O)C(O)C4CC(NCc5cccnc5)CCC4(C)C3CCC12C.Cl.Cl (stereo not drawn) [Compound 107] | 11.6 |  |  |  |  |  | 17.2 | % inhibition of eosinophils ([2]; 1 mg/kg/day for 4 days): −122%; % inhibition of lymphocytes ([2]; 1 mg/kg/day for 4 days): −28%; % inhibition of neutrophils ([2]; 1 mg/kg/day for 4 days): 23%
8 | C=C1CCC2C3C(CC[C@]12C)[C@@]1(C)CC[C@@H](NC(=O)Nc2ccccc2)CC1[C@@H](O)[C@@H]3O (stereo partly drawn) [Compound 137] |  |  |  |  | 93 ± 31 | 71 ± 17 |  | 
9 | C=C1CCC2C3C(CC[C@]12C)[C@@]1(C)CC[C@@H](NC(=O)NCCC)CC1[C@@H](O)[C@@H]3O (stereo partly drawn) [Compound 138] | 9.0 |  |  |  |  |  | 15 | % inhibition of eosinophils ([2]; 1 mg/kg/day for 4 days): −52%; % inhibition of lymphocytes ([2]; 1 mg/kg/day for 4 days): 33%; % inhibition of neutrophils ([2]; 1 mg/kg/day for 4 days): 35%
10 | CC1(C)CCC2=C1CCC1C2[C@@H](O)[C@H](O)C2C[C@@H](N)CC[C@]12C (stereo partly drawn) [Compound 139] | 26.3 |  |  |  |  |  | 10.3 | % remaining after 15 min [3, 5]: 100%; % remaining after 30 min [3, 6]: 100%
11 | CC1(C)CCC2=C1CCC1C2C(O)C(O)C2CC(NCc3ccc(F)c(F)c3)CCC21C.Cl (stereo not drawn) [Compound 141] | 36.3 |  |  |  |  |  | 9.4 | % remaining after 15 min [3, 5]: 100 ± 9%; % remaining after 30 min [3, 6]: 26 ± 4%
12 | CCC1(C)CCC2=C1CCC1C2C(O)C(O)C2CC(NCc3ccccc3)CCC21C.Cl (stereo not drawn) [Compound 147] | 36.3 |  |  |  |  |  | 18.1 | % inhibition of eosinophils ([2]; 1 mg/kg/day for 4 days): 40%; % inhibition of lymphocytes ([2]; 1 mg/kg/day for 4 days): 36%; % inhibition of neutrophils ([2]; 1 mg/kg/day for 4 days): 58%
